Test results taken from US4415730A, “19-Deformyl-deoxy-desmycosin” (priority 1981, dated 1983).
Converted amounts (≈) assume the structure as drawn. Like-named read-outs stand apart in the source and are kept apart here.

Columns and labels:
Assay type in all cases: cell-based
[1] = system: Staphylococcus aureus ATCC 6538P; assay: MIC, Staphylococcus aureus ATCC 6538P; conditions: ATCC6538P
[2] = system: Staphylococcus aureus MS353; assay: MIC, Staphylococcus aureus MS353
[3] = system: Staphylococcus aureus MS353AO; assay: MIC, Staphylococcus aureus MS353AO
Description: (§1) *Macrolide antibioticsresistant A group strain (clinical isolates of
(§2) erythromycin, oleandomycin and 16member-ring-macrolide-resistant strain)

[4] = system: Staphylococcus aureus 0116; assay: MIC, Staphylococcus aureus 0116
Description: as §1, §2

[5] = system: Staphylococcus aureus 0119; assay: MIC, Staphylococcus aureus 0119
Description: as §1, §2

[6] = system: Staphylococcus aureus 0127; assay: MIC, Staphylococcus aureus 0127
Description: as §1, §2

[7] = system: Streptococcus pyogenes N.Y.5; assay: MIC, Streptococcus pyogenes N.Y.5
[8] = system: Streptococcus pyogenes 1022; assay: MIC, Streptococcus pyogenes 1022
[9] = Staphylococcus aureus 0116, macrolide-resistant A group strain, clinical isolate, read-out: MIC
[10] = Staphylococcus aureus 0119, macrolide-resistant A group strain, clinical isolate, read-out: MIC
[11] = Staphylococcus aureus 0127, macrolide-resistant A group strain, clinical isolate, read-out: MIC

Row | SMILES | MIC [1] | MIC [2] | MIC ([3]; Staphylococcus aureus, MS353AO) | MIC [4, 9] | MIC [5, 10] | MIC [6, 11] | MIC [7] | MIC [8] | MIC ([6]; Staphylococcus aureus, 0127) | MIC ([8]; read-out: MIC) | MIC ([3]; Staphylococcus aureus MS353AO, macrolide-resistant A group strain, clinical isolate, read-out: MIC) | MIC ([4]; Staphylococcus aureus, 0116) | MIC ([5]; Staphylococcus aureus, 0119)
1 | CCC1OC(=O)CC(O)C(C)C(OC2OC(C)CC(N(C)C)C2O)C(C)CC(C)C(=O)C=CC(C)=CC1COC1OC(C)C(O)C(OC)C1OC (stereo not shown) [Compound [1] R1 = H, 19-deformyl-4'-deoxy-desmycosin] | ≤ 0.05 µg/mL | ≤ 0.05 µg/mL | 0.8 µg/mL (≈ 1.1 µM) | 0.8 µg/mL (≈ 1.1 µM) | > 100 µg/mL | > 100 µg/mL | ≤ 0.05 µg/mL | > 100 µg/mL |  |  |  |  | 
2 | CCC1OC(=O)CC(O)C(C)C(OC2OC(C)C(O)C(N(C)C)C2O)C(C)CC(C)C(=O)C=CC(C)=CC1COC1OC(C)CC(OC)C1OC (stereo not shown) [Compound [1] R1 = OH, 19-deformyl-4"-deoxy-desmycosin] | 0.1 µg/mL (≈ 0.137 µM) | ≤ 0.05 µg/mL | 25 µg/mL (≈ 34.3 µM) | 3.1 µg/mL (≈ 4.26 µM) | 12.5 µg/mL (≈ 17.2 µM) |  | ≤ 0.05 µg/mL |  | 6.3 µg/mL (≈ 8.65 µM) | 25 µg/mL (≈ 34.3 µM) |  |  | 
3 | CCC1OC(=O)CC(O)C(C)C(OC2OC(C)C(O)C(N(C)C)C2O)C(CC=O)CC(C)C(=O)/C=C/C(C)=C/C1COC1OC(C)C(O)C(OC)C1OC (stereo not shown) [descomycin, 4'-demycarosyl tylosin] | 0.8 µg/mL (≈ 1.04 µM) | 0.8 µg/mL (≈ 1.04 µM) | > 100 µg/mL | 3.1 µg/mL (≈ 4.02 µM) | > 100 µg/mL | > 100 µg/mL | ≤ 0.05 µg/mL |  |  | > 100 µg/mL |  |  | 
4 | CC[C@H]1OC(=O)[C@H](C)[C@@H](O[C@H]2C[C@@](C)(OC)[C@@H](O)[C@H](C)O2)[C@H](C)[C@@H](O[C@@H]2O[C@H](C)C[C@H](N(C)C)[C@H]2O)[C@](C)(O)C[C@@H](C)C(=O)[C@H](C)[C@@H](O)[C@]1(C)O [erythromycin] | ≤ 0.05 µg/mL | 0.1 µg/mL (≈ 0.136 µM) |  |  |  |  | ≤ 0.05 µg/mL | > 100 µg/mL | > 100 µg/mL |  | > 100 µg/mL | > 100 µg/mL | > 100 µg/mL
5 | CO[C@@H]1[C@@H](O[C@@H]2O[C@H](C)[C@@H](O[C@H]3C[C@@](C)(O)[C@@H](OC(=O)CC(C)C)[C@H](C)O3)[C@H](N(C)C)[C@H]2O)[C@@H](CC=O)C[C@@H](C)[C@@H](O)/C=C/C=C/C[C@@H](C)OC(=O)C[C@H]1OC(C)=O [josamycin] | 0.4 µg/mL (≈ 0.483 µM) | 0.8 µg/mL (≈ 0.966 µM) | > 100 µg/mL | > 100 µg/mL | > 100 µg/mL | > 100 µg/mL | ≤ 0.05 µg/mL |  |  | > 100 µg/mL |  |  | 
